Assay results published in patent US12188932B2, “Method for high throughput peptide-MHC affinity screening for TCR ligands” (priority 2018, dated 2025).

System: GloResponse NFAT-luc2 Jurkat cells
Conditions: T2 loaded with 100 nM peptide, 18 hours
Protocol: T cell activation assays using GloResponse™ NFAT-luc2 Jurkat cells and peptide loaded T2 target cells were performed according to manufacturer instructions. In short, T2 cells were harvested from continuous cell culture, washed and resuspended in T2 culture medium at a concentration of 3.3×10^6 cells/ml and transferred to 96 well round bottom plates (Corning Costar®, Cat. Nr. 3799). Peptide in DMSO, 0.5% TFA was added to a final concentration of 100 nM and the suspension incubated for 2 to 3 hours at 37° C., 5% CO2. bsTCR formulated in PBS was diluted in T2 culture medium to desired concentration and 25 μl of the respective dilution was distributed to white 96 well flat bottom plates (Brand, Cat. Nr. 781965). […] After the incubation period 75 μl of Bio-Glo™ luciferase reagent was added to each well and the plates incubated for minutes at 300 rpm on a plate shaker in the dark before reading luminescence at a 0.5 second integration time with a Synergy2 plate reader (Biotek). Luminescence as measured in relative light units (RLU) was converted to fold induction for each well by dividing measured RLU through those of control wells.
T2 cells were loaded separately with respective peptides from the positional scanning library at a concentration of 100 nM and subsequently co-incubated with Jurkats and different bsTCR concentrations for 18 hours before readout.

ALYNVLAKV
T cell activation (luminescence fold induction over background): reactive in the reporter assay
